We go through five compounds from ChEMBL document CHEMBL3259785, “Recent advances in the discovery of small molecules targeting exchange proteins directly activated by cAMP (EPAC)” (J Med Chem, 2014).

For assay [1], the target named is T1, Rap guanine nucleotide exchange factor 4 (Homo sapiens, UniProt Q8WZA2). The experiment in a line: Displacement of 8-NBD-cAMP from EPAC2 (unknown origin) by fluorescence plate reader analysis.
The target of assay [2] is T1, Rap guanine nucleotide exchange factor 4. The experiment in a line: Inhibition of EPAC2 (unknown origin).
Assay [3] deals with T2, Rap guanine nucleotide exchange factor 3 (Homo sapiens, UniProt O95398).
T2 sequence (O95398 whole entry): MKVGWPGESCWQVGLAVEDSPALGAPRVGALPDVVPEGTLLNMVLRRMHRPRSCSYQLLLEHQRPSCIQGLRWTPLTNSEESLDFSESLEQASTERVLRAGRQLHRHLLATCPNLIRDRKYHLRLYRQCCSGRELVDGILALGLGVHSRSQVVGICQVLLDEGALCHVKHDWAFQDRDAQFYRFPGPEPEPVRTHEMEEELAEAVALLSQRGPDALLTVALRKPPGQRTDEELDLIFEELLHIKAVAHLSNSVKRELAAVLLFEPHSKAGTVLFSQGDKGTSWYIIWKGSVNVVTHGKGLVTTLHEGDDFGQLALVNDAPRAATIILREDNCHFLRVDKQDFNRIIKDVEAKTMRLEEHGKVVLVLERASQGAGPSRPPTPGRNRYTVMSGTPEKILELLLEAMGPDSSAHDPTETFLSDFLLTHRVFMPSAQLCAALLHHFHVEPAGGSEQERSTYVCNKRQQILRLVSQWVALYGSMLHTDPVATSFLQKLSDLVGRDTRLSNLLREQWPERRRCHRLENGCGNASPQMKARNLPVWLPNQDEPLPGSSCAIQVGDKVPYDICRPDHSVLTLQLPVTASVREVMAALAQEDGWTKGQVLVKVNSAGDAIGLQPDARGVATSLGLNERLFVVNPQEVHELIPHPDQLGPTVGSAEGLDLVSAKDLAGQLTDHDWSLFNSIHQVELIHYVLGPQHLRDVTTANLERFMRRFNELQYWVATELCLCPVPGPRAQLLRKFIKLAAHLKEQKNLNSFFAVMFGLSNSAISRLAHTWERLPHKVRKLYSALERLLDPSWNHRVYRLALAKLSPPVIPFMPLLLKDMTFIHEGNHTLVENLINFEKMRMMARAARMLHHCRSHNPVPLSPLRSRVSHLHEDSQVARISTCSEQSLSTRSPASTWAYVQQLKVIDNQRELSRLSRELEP
Nature of the assay: Inhibition of EPAC1 (unknown origin) assessed as cAMP-mediated GEF activity.

T1 sequence (Q8WZA2 whole entry): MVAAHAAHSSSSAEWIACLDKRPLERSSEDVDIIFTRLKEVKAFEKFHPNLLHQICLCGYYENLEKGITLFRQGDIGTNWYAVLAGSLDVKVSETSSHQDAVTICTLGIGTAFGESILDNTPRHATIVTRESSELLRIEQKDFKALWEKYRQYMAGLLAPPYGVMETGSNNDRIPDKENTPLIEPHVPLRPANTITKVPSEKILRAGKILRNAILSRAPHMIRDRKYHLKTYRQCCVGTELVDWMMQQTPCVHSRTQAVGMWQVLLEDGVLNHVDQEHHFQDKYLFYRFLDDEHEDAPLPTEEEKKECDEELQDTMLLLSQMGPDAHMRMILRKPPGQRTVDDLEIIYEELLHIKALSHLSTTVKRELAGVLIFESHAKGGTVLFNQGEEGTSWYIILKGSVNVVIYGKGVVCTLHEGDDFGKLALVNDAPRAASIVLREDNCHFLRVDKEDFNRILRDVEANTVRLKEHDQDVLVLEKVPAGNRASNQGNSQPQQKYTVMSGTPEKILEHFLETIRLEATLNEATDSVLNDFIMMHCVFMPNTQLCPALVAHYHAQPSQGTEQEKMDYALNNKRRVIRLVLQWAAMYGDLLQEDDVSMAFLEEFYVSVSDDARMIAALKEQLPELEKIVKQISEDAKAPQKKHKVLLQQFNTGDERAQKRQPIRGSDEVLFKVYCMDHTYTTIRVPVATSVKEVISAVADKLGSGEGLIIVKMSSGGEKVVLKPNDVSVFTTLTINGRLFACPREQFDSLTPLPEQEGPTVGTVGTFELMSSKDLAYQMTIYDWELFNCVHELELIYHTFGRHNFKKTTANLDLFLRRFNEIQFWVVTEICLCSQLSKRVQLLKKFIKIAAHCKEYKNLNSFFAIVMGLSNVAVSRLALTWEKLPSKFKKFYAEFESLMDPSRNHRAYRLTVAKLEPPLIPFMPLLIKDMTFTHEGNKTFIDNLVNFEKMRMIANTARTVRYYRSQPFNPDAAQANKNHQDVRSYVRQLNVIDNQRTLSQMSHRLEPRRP

As for `O=S(=O)(O)c1ccc2c(/N=N/c3c(O)ccc4ccccc34)cccc2c1`, the IC50 in assay [1] worked out at 1.7 µM.
As to `N#Cc1c(NC(=O)C(F)(F)F)sc2c3c(=O)c4ccccc4c(=O)c=3oc3ccccc3c12`, in assay [1], the IC50 amounted to 7.9 µM.
As to `O=C1C=CC2=C(Oc3c(ccc(O)c3O)/C2=C/C=C(O)O)C1=O`, in assay [1], the IC50 amounted to 3.8 µM.
For the compound `COCCC[n+]1c(C)csc1Nc1c(C)cc(C)cc1C`, the IC50 in assay [2] is 0.6 µM.
As to `CC(C)(C)c1cc(C(=O)/C(C#N)=N/Nc2cccc(Cl)c2)no1`, the IC50 came out at 7 µM in assay [1] and 3.2 µM in assay [3].
